Source: article PMC9841589, “Identification of 2-Aminoacyl-1,3,4-thiadiazoles as Prostaglandin E2 and Leukotriene Biosynthesis Inhibitors” (ACS Medicinal Chemistry Letters, 2022)

How the values were obtained:
[1] = test system: 5-LO product formation in human M1 macrophages; experiment: Determination of LO products in human macrophages; type: cell-based; conditions: 10 µM, activated by Staphylococcus aureus for 90 min
Method: Figure S4. Human monocyte-derived macrophages were pre-treated with test compounds (10 µM) or vehicle 15 min prior stimulation. Cells were then stimulated with S. aureus for 90 min. Data are expressed as percentage of the mean of the 100% control DMSO of n=3 experiments. […]
Determination of LO products in human macrophages
Human M1 macrophages (2 x 10^6 /mL) were pre-treated with test compounds or vehicle (DMSO, 0.1%) for 15 min. Afterward, 1% Staphylococcus aureus 6850wt-conditioned medium (SACM) was added for 90 minutes at 37 °C in order to induce LO product formation. The reaction was stopped by transferring supernatants (1 mL) into 2 mL ice-cold MeOH. After addition of the deuterated LM standards (200 nM d8-5S-HETE, d4-LTB4, d5-LXA4, d5-RvD2, d4-PGE2 and 10 µM d8-AA; Cayman Chemical/Biomol GmbH, Hamburg, Germany), samples were kept at −20 °C for 60 min and then centrifuged (1,200×g, 4°C, 10 min). Solid-phase C18 cartridges were equilibrated with 6 mL methanol before the addition of 6 mL H2O. Then, 9 mL acidified H2O (pH 3.5, HCl) was added, and the samples were loaded onto the conditioned C18 columns that were subsequently washed with 6 mL H2O, followed by 6 mL n-hexane. The LM were eluted with 6 mL of methyl formate, samples were brought to dryness using an evaporation system (TurboVap LV, Biotage) and immediately […]
resuspended in methanol-water (50:50 vol/vol) for UPLC-MS-MS automated injections. The UPLC-MS-MS system consisted of an Acquity UPLC BEH C18 column (1.7 µm, 2.1 × 50 mm, Waters) and an AcquityTM UPLC (Waters) as well as a QTRAP 5500 mass spectrometer (Sciex, Darmstadt, Germany) equipped with an electrospray ionization source. The QTrap 5500 was operated in negative ionization mode using scheduled multiple reaction monitoring (MRM) coupled with the information-dependent acquisition (IDA) and an enhanced product ion scan (EPI). The scheduled MRM window was 90 s, and each LM parameter was optimized individually. LOX product analysis, using an MRM method with diagnostic ion fragments and identification, was performed as described previously.922 […]
Following incubations of 24 h, cells were collected with a cell scraper and, after centrifugation at 14000 × g for 10 min at 4 °C, the supernatant was collected and stored at −80°C for ELISA analysis 1023.
Male CD-1 mice (25–30 g of weight) were obtained from Charles River (Milan, Italy) and kept in an animal care facility under controlled temperature, humidity, with ad libitum access to water and standard laboratory chow diet. All experimental procedures were carried out according to the international and national law and policies (EU Directive 2010/63/EU for animal experiments, ARRIVE guidelines, and the Basel declaration including the 3R concept)11,1224, 25. […]

mPGES-1 = molecular target: T1, mPGES-1 (Homo sapiens, UniProt O14684); experiment: Cell-free mPGES-1 activity assay (PGE2 biosynthesis); type: biochemical; conditions: for remaining activity at 10 µM: percentage of control (100%), read-out: mPGES-1 residual activity at 10 μM (%); for IC50: n = 3, read-out: IC50 value ± SEM (mPGES-1, cell-free)
T1 construct: endogenous in cells; host or cells: A549 cells stimulated with IL-1β; microsomal fraction
T1 sequence (O14684 1-152): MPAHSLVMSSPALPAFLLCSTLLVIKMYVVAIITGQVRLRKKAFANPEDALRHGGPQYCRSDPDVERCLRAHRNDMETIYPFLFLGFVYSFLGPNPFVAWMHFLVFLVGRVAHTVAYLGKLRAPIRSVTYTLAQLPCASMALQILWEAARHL
Source text: (Table 1). […] From the structural point of view, the biological affinities of compounds 3 and 7 (Figure 2A and C) could be positively affected by the 2-bromobenzoyl substituent able to accommodate in a deep binding pocket on the mPGES-1 surface. This moiety interacts by van der Waals contacts with amino acids of the cytoplasmic part and establishes π-stacking with Phe44ChainC and His53ChainC hydrogen bonds with Ser127, and a halogen bond between the bromine atom and the side chain of Aps49ChainC. Furthermore, the 3-phenylphenol and 2-aminobiphenyl moieties of 3 and 7 (Figure 2A and C), respectively, are able to establish a peculiar π-stacking with Tyr130ChainA and a hydrogen bond with Gln134ChainA. […]
mM glutathione, and 250 mM sucrose) and the protein concentration was defined. Potassium phosphate buffer (0.1 M, pH = 7.4) plus glutathione (2.5 mM) was added to dilute microsomes, which were then seeded in a 96-well plate. […]
preincubated for 15 min on ice. MK886 (10 µM) and MD-52 (1 µM) were used as reference drugs.
The reactions started by adding 20 µM of PGH2, and 1 min later, 100 µl of a solution containing FeCl3 (40 mM), citric acid (80 mM), and 11β-PGE 2 (10 µM) were added for stopping the conversion of PGH2. After the extraction of PGE2 and 11β-PGE 2 (internal stardard) by solid-phase extraction, […]

O=C(Nc1nnc(-c2ccc(-c3cccc(O)c3)cc2)s1)c1ccccc1Br [compound 3]
cellular 5-LO product formation in pro-inflammatory macrophages [1]: potent inhibition of cellular 5-LO product formation
remaining activity at 10 µM (mPGES-1): 8.4%
IC50 (mPGES-1): 200 nM

Nc1ccccc1-c1ccc(-c2nnc(NC(=O)c3c(Cl)ccnc3Cl)s2)cc1 [compound 9]
cellular 5-LO product formation in pro-inflammatory macrophages [1]: potent inhibition of cellular 5-LO product formation
remaining activity at 10 µM (mPGES-1): 20.9%
IC50 (mPGES-1): 1700 ± 300 nM

Nc1ccccc1-c1ccc(-c2nnc(NC(=O)c3ccccc3Br)s2)cc1 [compound 7]
cellular 5-LO product formation in pro-inflammatory macrophages [1]: potent inhibition of cellular 5-LO product formation
remaining activity at 10 µM (mPGES-1): 16.7%
IC50 (mPGES-1): 150 nM

Cc1cc(C(=O)Nc2nnc(-c3ccc(-c4ccccc4N)cc3)s2)cc(Cl)n1 [compound 6]
cellular 5-LO product formation in pro-inflammatory macrophages [1]: potent inhibition of cellular 5-LO product formation
remaining activity at 10 µM (mPGES-1): 31.7%
IC50 (mPGES-1): 3100 ± 600 nM
